From ChEMBL document CHEMBL1201862, “PubChem BioAssay data set” (2004)
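Test compounds were applied to cells in 96-well plates for 48 hours at 5 doses. GI50: concentration for 50% inhibition of growth.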 Calls of active or inactive are those of the source. Cut-off read from the data, not from the text of the source: active = GI50 up to about 1.1 µM and inactive = higher.

Columns and labels:
Assay in all cases: inhibition of tumour cell growth, NCI panel, 48 h
ACHN = system: ACHN
BT-549 = system: BT-549
HCC 2998 = system: HCC 2998
HL-60 = system: HL-60
HOP-92 = system: HOP-92
HT-29 = system: HT-29
IGROV-1 = system: IGROV-1
KM12 = system: KM12
M14 = system: M14
MCF7 = system: MCF7
Malme-3M = system: Malme-3M
OVCAR-3 = system: OVCAR-3
OVCAR-4 = system: OVCAR-4
PC-3 = system: PC-3
RPMI-8226 = system: RPMI-8226
SK-MEL-5 = system: SK-MEL-5
T47D = system: T47D
TK-10 = system: TK-10
UACC-257 = system: UACC-257
UO-31 = system: UO-31

Measured: GI50

COC(=O)CC1(O)C=CC(=O)C=C1 [JACARANONE]
inactive: ACHN 2.99 µM | BT-549 5.02 µM | HCC 2998 15.3 µM | HL-60 2.59 µM | HOP-92 8.07 µM | HT-29 6.24 µM | IGROV-1 2.02 µM | KM12 1.74 µM | M14 4.18 µM | MCF7 2.97 µM | Malme-3M 2.81 µM | OVCAR-3 3.91 µM | OVCAR-4 3.82 µM | PC-3 2.57 µM | RPMI-8226 5.45 µM | SK-MEL-5 3.29 µM | T47D 5.42 µM | TK-10 4.81 µM | UACC-257 2.65 µM | UO-31 2.96 µM

C=C1CCCC(C)(C)[C@H]1C/C=C1\CCOC1=O
inactive: ACHN 15.7 µM | BT-549 14 µM | HCC 2998 23.9 µM | HL-60 11.5 µM | HOP-92 12.1 µM | HT-29 13.9 µM | IGROV-1 14.2 µM | KM12 17.9 µM | M14 17.5 µM | MCF7 12.8 µM | Malme-3M 13.5 µM | OVCAR-3 15 µM | OVCAR-4 11 µM | PC-3 16.9 µM | RPMI-8226 6.62 µM | SK-MEL-5 10.2 µM | T47D 54.2 µM | TK-10 19.5 µM | UACC-257 12.1 µM | UO-31 16.1 µM

Cn1c(=O)[nH]c2nccnc2c1=O
inactive: ACHN > 10 µM | BT-549 > 10 µM | HCC 2998 > 10 µM | HL-60 > 10 µM | HOP-92 > 10 µM | HT-29 > 10 µM | IGROV-1 > 10 µM | KM12 > 10 µM | M14 > 10 µM | MCF7 > 10 µM | Malme-3M > 10 µM | OVCAR-3 > 10 µM | OVCAR-4 > 10 µM | PC-3 > 10 µM | RPMI-8226 > 10 µM | SK-MEL-5 > 10 µM | T47D > 10 µM | TK-10 > 10 µM | UACC-257 > 10 µM | UO-31 > 10 µM

Nc1cc(-c2ccc(Cl)cc2)nn1-c1nc2ccccc2nc1-c1ccccc1
inactive: ACHN 70.6 µM | BT-549 > 100 µM | HCC 2998 > 100 µM | HL-60 > 100 µM | HOP-92 56 µM | HT-29 11.9 µM | IGROV-1 38.3 µM | KM12 > 100 µM | M14 > 100 µM | MCF7 > 100 µM | Malme-3M 50.9 µM | OVCAR-3 65 µM | OVCAR-4 56.8 µM | PC-3 22.2 µM | RPMI-8226 37.5 µM | SK-MEL-5 92 µM | T47D 13.3 µM | TK-10 77.1 µM | UACC-257 > 100 µM
